A word on the pIC50: it is −log10 of the IC50, conventionally taken in molar units. Low values mean a large IC50, high ones a small IC50.

pIC50: −log10 of the molar value.

This passage reports IC50 results from patent US9109004B2, “Progesterone receptor antagonists” (Bayer Intellectual Property GmbH, priority 2010, dated 2015).

The assay has as its target T1, human progesterone receptor A (Homo sapiens, UniProt P06401).
T1 construct: expressed in transfected cells; host or cells: SK-N-MC human neuroblastoma cells, stably transfected
T1 sequence (P06401 1-769 isoform P06401-2): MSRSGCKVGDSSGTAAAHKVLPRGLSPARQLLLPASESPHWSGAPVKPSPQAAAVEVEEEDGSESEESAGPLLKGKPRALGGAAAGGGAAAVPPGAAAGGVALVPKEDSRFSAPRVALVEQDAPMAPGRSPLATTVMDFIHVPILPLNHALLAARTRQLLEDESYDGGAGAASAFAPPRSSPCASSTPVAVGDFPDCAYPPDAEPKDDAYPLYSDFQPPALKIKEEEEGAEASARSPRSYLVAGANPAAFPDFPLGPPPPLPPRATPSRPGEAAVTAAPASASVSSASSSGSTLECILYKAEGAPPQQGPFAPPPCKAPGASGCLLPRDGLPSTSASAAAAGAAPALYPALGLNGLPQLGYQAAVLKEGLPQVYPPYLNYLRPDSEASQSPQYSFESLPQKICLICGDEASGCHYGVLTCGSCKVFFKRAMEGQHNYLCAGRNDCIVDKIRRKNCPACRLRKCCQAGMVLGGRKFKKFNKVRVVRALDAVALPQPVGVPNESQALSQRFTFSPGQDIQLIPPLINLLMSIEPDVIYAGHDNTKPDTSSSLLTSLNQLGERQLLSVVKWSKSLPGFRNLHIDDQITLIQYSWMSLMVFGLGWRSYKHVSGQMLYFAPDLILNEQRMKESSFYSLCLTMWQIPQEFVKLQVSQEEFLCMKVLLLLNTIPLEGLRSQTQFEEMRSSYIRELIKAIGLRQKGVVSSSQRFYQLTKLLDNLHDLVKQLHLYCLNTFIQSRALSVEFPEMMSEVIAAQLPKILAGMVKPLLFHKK
Nature of the assay: Progesterone-receptor-antagonistic action in stably transfected SK-N-MC cells, MTV-LUC reporter (PR-A). The format is cell-based. The following applies: antagonistic potency vs 0.1 nmol/l promegestone, 24 hours, luciferase. On the procedure:
Progesterone-Receptor-Antagonistic Action in Stable Transfectants of Human Neuroblastoma Cells (SK-N-MC Cells) with the Human Progesterone A or Progesterone B Receptor and an MTV-LUC Reporter Construct
SK-N-MC cells (human neuroblastoma cells) that have been stably transfected with plasmids that express the human progesterone receptor B (pRChPR-B-neo) or the human progesterone receptor A (pRChPR-A-neo) and a reporter construct (pMMTV-LUC), were incubated for 24 hours either in the absence (negative control) or in the presence of increasing amounts of the particular test compound (0.01 nmol/l, 0.1 nmol/l, 1 nmol/l, 10 nmol/l, 100 nmol/l and 1 μmol/l), to determine the agonistic efficacy. As positive control of reporter gene induction, the cells were treated with the synthetic gestagen promegestone (0.01 nmol/l, 0.1 nmol/l, 1 nmol/l, 10 nmol/l, 100 nmol/l and 1 μmol/l). For determination of the antagonistic activity, the cells were treated with 0.1 nmol/l promegestone and additionally with increasing amounts of the particular test compound (0.01 nmol/l, 0.1 nmol/l, 1 nmol/l, 10 nmol/l, 100 nmol/l and 1 μmol/l). The activity of the reporter gene LUC (LUC=luciferase) was determined in the cell lysates and was measured as RLU (relative light units). All measured values are given as % efficacy and as EC50 or IC50 concentrations.
On to `CC(=O)Nc1ccc(NC(=O)c2ccc([C@H]3C[C@@]4(C)[C@@H](CC[C@@]4(O)C(F)(F)C(F)(F)F)[C@@H]4CCC5=CC(=O)CCC5=C43)cc2)cc1` [Example 52, N-(4-acetamidophenyl)-4-[(11β,17β)-17-hydroxy-3-oxo-17-(pentafluoroethyl)estra-4,9-dien-11-yl]benzamide], for which the pIC50 was 9.15. For `COc1cccc(CNC(=O)c2ccc([C@H]3C[C@@]4(C)[C@@H](CC[C@@]4(O)C(F)(F)C(F)(F)F)[C@@H]4CCC5=CC(=O)CCC5=C43)cc2)c1` [Example 53, 4-[(11β,17β)-17-hydroxy-3-oxo-17-(pentafluoroethyl)estra-4,9-dien-11-yl]-N-(3-methoxybenzyl)benzamide], the negative-log IC50 (pIC50) is 7.54. Then `C[C@]12C[C@H](c3ccc(C(=O)NCCN4CCCC4)cc3)C3=C4CCC(=O)C=C4CC[C@H]3[C@@H]1CC[C@@]2(O)C(F)(F)C(F)(F)F` [Example 54, 4-[(11β,17β)-17-hydroxy-3-oxo-17-(pentafluoroethyl)estra-4,9-dien-11-yl]-N-[2-(pyrrolidin-1-yl)ethyl]benzamide], with 7.68; and `C[C@]12C[C@H](c3ccc(C(=O)NCCc4cccnc4)cc3)C3=C4CCC(=O)C=C4CC[C@H]3[C@@H]1CC[C@@]2(O)C(F)(F)C(F)(F)F` [Example 55, 4-[(11β,17β)-17-hydroxy-3-oxo-17-(pentafluoroethyl)estra-4,9-dien-11-yl]-N-[2-(pyridin-3-yl)ethyl]benzamide], with 8.60; and `C[C@]12C[C@H](c3ccc(C(=O)NCc4cccc(Cl)c4)cc3)C3=C4CCC(=O)C=C4CC[C@H]3[C@@H]1CC[C@@]2(O)C(F)(F)C(F)(F)F` [Example 56, N-(3-chlorobenzyl)-4-[(11β,17β)-17-hydroxy-3-oxo-17-(pentafluoroethyl)estra-4,9-dien-11-yl]benzamide], with 8.64.

Turning to `COC(=O)c1cccc(NC(=O)c2ccc([C@H]3C[C@@]4(C)[C@@H](CC[C@@]4(O)C(F)(F)C(F)(F)F)[C@@H]4CCC5=CC(=O)CCC5=C43)cc2)c1` [Example 57, methyl-3-({4-[(11β,17β)-17-hydroxy-3-oxo-17-(pentafluoroethyl)estra-4,9-dien-11-yl]benzoyl}amino)benzoate], the negative logarithm of the IC50 (pIC50) was 9.10. `CN(CCc1ccncc1)C(=O)c1ccc([C@H]2C[C@@]3(C)[C@@H](CC[C@@]3(O)C(F)(F)C(F)(F)F)[C@@H]3CCC4=CC(=O)CCC4=C32)cc1` [Example 58, 4-[(11β,17β)-17-hydroxy-3-oxo-17-(pentafluoroethyl)estra-4,9-dien-11-yl]-N-methyl-N-[2-(pyridin-4-yl)ethyl]benzamide]: the negative logarithm of the IC50 (pIC50) is 8.24. To `C[C@]12C[C@H](c3ccc(C(=O)NCC4CC4)cc3)C3=C4CCC(=O)C=C4CC[C@H]3[C@@H]1CC[C@@]2(O)C(F)(F)C(F)(F)F` [Example 59, N-(cyclopropylmethyl)-4-[(11β,17β)-17-hydroxy-3-oxo-17-(pentafluoroethyl)estra-4,9-dien-11-yl]benzamide] belongs 8.16. Take `C[C@]12C[C@H](c3ccc(C(=O)Nc4ccc(C(=O)Nc5ccccc5)cc4)cc3)C3=C4CCC(=O)C=C4CC[C@H]3[C@@H]1CC[C@@]2(O)C(F)(F)C(F)(F)F` [Example 60, 4-[(11β,17β)-17-hydroxy-3-oxo-17-(pentafluoroethyl)estra-4,9-dien-11-yl]-N-[4-(phenylcarbamoyl)phenyl]benzamide]: the negative-log IC50 (pIC50) was 9.41. In turn, `C[C@]12C[C@H](c3ccc(C(=O)NCCc4ccccn4)cc3)C3=C4CCC(=O)C=C4CC[C@H]3[C@@H]1CC[C@@]2(O)C(F)(F)C(F)(F)F` [Example 61, 4-[(11β,17β)-17-hydroxy-3-oxo-17-(pentafluoroethyl)estra-4,9-dien-11-yl]-N-[2-(pyridin-2-yl)ethyl]benzamide] had a pIC50 of 8.80. `CN1CCN(CCNC(=O)c2ccc([C@H]3C[C@@]4(C)[C@@H](CC[C@@]4(O)C(F)(F)C(F)(F)F)[C@@H]4CCC5=CC(=O)CCC5=C43)cc2)CC1` [Example 62, 4-[(11β,17β)-17-hydroxy-3-oxo-17-(pentafluoroethyl)estra-4,9-dien-11-yl]-N-[2-(4-methylpiperazin-1-yl)ethyl]benzamide] gave a negative logarithm of the IC50 (pIC50) of 7.03. To `C[C@]12C[C@H](c3ccc(C(=O)N4CCC(c5ccccc5)CC4)cc3)C3=C4CCC(=O)C=C4CC[C@H]3[C@@H]1CC[C@@]2(O)C(F)(F)C(F)(F)F` [Example 63, (11β,17β)-17-hydroxy-17-(pentafluoroethyl)-11-{4-[(4-phenylpiperidin-1-yl)carbonyl]phenyl}estra-4,9-dien-3-one] belongs 8.39; to `C[C@]12C[C@H](c3ccc(C(=O)NCCc4ccncc4)cc3)C3=C4CCC(=O)C=C4CC[C@H]3[C@@H]1CC[C@@]2(O)C(F)(F)C(F)(F)F` [Example 64, 4-[(11β,17β)-17-hydroxy-3-oxo-17-(pentafluoroethyl)estra-4,9-dien-11-yl]-N-[2-(pyridin-4-yl)ethyl]benzamide], 8.96. Then `C[C@]12C[C@H](c3ccc(C(=O)N4CCN(C(=O)c5ccccc5)CC4)cc3)C3=C4CCC(=O)C=C4CC[C@H]3[C@@H]1CC[C@@]2(O)C(F)(F)C(F)(F)F` [Example 65, (11β,17β)-11-{4-[(4-benzoylpiperazin-1-yl)carbonyl]phenyl}-17-hydroxy-17-(pentafluoroethyl)estra-4,9-dien-3-one], with 8.57; and `CN(C)C(=O)N1CCN(C(=O)c2ccc([C@H]3C[C@@]4(C)[C@@H](CC[C@@]4(O)C(F)(F)C(F)(F)F)[C@@H]4CCC5=CC(=O)CCC5=C43)cc2)CC1` [Example 66, 4-{4-[(11β,17β)-17-hydroxy-3-oxo-17-(pentafluoroethyl)estra-4,9-dien-11-yl]benzoyl}-N,N-dimethylpiperazine-1-carboxamide], with 7.46. Then `C[C@]12C[C@H](c3ccc(C(=O)N4CCN(S(C)(=O)=O)CC4)cc3)C3=C4CCC(=O)C=C4CC[C@H]3[C@@H]1CC[C@@]2(O)C(F)(F)C(F)(F)F` [Example 67, (11β,17β)-17-hydroxy-11-(4-{[4-(methylsulphonyl)piperazin-1-yl]carbonyl}phenyl)-17-(pentafluoroethyl)estra-4,9-dien-3-one], with 8.20. For `C[C@]12C[C@H](c3ccc(C(=O)N4CCN(Cc5ccccn5)CC4)cc3)C3=C4CCC(=O)C=C4CC[C@H]3[C@@H]1CC[C@@]2(O)C(F)(F)C(F)(F)F` [Example 68, (11β,17β)-17-hydroxy-17-(pentafluoroethyl)-11-(4-{[4-(pyridin-2-ylmethyl)piperazin-1-yl]carbonyl}phenyl)estra-4,9-dien-3-one], the pIC50 was 7.80. To `C[C@]12C[C@H](c3ccc(C(=O)N4CCN(Cc5cccnc5)CC4)cc3)C3=C4CCC(=O)C=C4CC[C@H]3[C@@H]1CC[C@@]2(O)C(F)(F)C(F)(F)F` [Example 69, (11β,17β)-17-hydroxy-17-(pentafluoroethyl)-11-(4-{[4-(pyridin-3-ylmethyl)piperazin-1-yl]carbonyl}phenyl)estra-4,9-dien-3-one] belongs 8.14. In the case of `COC(=O)N1CCN(C(=O)c2ccc([C@H]3C[C@@]4(C)[C@@H](CC[C@@]4(O)C(F)(F)C(F)(F)F)[C@@H]4CCC5=CC(=O)CCC5=C43)cc2)CC1` [Example 70, methyl-4-{4-[(11β,17β)-17-hydroxy-3-oxo-17-(pentafluoroethyl)estra-4,9-dien-11-yl]benzoyl}piperazine-1-carboxylate], the pIC50 is 8.77. Then `CNC(=O)CN1CCN(C(=O)c2ccc([C@H]3C[C@@]4(C)[C@@H](CC[C@@]4(O)C(F)(F)C(F)(F)F)[C@@H]4CCC5=CC(=O)CCC5=C43)cc2)CC1` [Example 71, 2-(4-{4-[(11β,17β)-17-hydroxy-3-oxo-17-(pentafluoroethyl)estra-4,9-dien-11-yl]benzoyl}piperazin-1-yl)-N-methylacetamide], with 7.42.
